Assay results taken from patent US8669361B2, “Pyrazol-4-yl-heterocyclyl-carboxamide compounds and methods of use” (Genentech, Inc., priority 2010, dated 2014).

Tests used:
[1] = target: PIM1 (Homo sapiens (Human), UniProt P11309); assay: Pim kinase binding activity, Caliper LC3000 microfluidic peptide phosphorylation assay (Example 901); type: biochemical; settings: 20 pM PIM1, 1 μM FAM-peptide, 10 μM ATP, 90 minutes at room temperature; read-out: PIM1 LC3K (KI)
Procedure: (§1) PIM-1, -2, and -3 enzymes were generated as fusion proteins expressed in bacteria and purified by IMAC column chromatography (Sun, X., Chiu, J. F., and He, Q. Y. (2005) Expert Rev. Proteomics, 2:649-657). A fluorescent-labeled Pim-specific peptide substrate, was custom synthesized by American Peptide Company (Sunnyvale, Calif.). Reaction Buffer contained 10 mM HEPES, pH 7.2, 10 mM MgCl2, 0.01% Tween 20, 2 mM DTT. Termination Buffer contained 190 mM HEPES, pH 7.2, 0.015% Brij-35, 0.2% Coating Reagent 3 (Caliper Life Sciences, Hopkinton, Mass.), 20 mM EDTA. Separation Buffer contained 100 mM HEPES, pH 7.2, 0.015% Brij-35, 0.1% Coating Reagent 3, 1:200 Coating Reagent 8 (Caliper Life Sciences, Hopkinton, Mass.), 10 mM EDTA and 5% DMSO.
(§2) PIM reactions were carried out in a final volume of 10 μL per well in a 384-well plate. A standard enzymatic reaction, initiated by the addition of 5 μL 2×ATP and test compound to 5 μL of 2× enzyme and FAM-peptide, contained 20 pM PIM1, 50 pM PIM2, or 55 pM PIM3, 1 μM FAM-peptide, and 10 μM ATP, in Reaction Buffer. After 90 minutes of incubation at room temperature, the phosphorylation reaction was stopped by the addition of 10 μL Termination Buffer. The product and substrate in each independent reaction were separated on a 12-sipper microfluidic chip (Caliper Life Sciences, Hopkinton, Mass.) run on a Caliper LC3000® (Caliper Life Sciences, Hopkinton, Mass.). The separation of product and substrate was optimized by choosing voltages and pressure using Caliper's Optimizer software (Hopkinton, Mass.). The separation conditions used a downstream voltage of −500V, an upstream voltage of −2150V, and a screening pressure of −1.2 psi. The product and substrate fluorophore were excited at 488 nm and detected at 530 nm. Substrate conversion was calculated from the electropherogram using HTS Well Analyzer software (Caliper Life Sciences, Hopkinton, Mass.). Ki values for the test compound were calculated.

[2] = target: PIM3 (Homo sapiens (Human), UniProt Q86V86); assay: as above; type: biochemical; settings: 55 pM PIM3, 1 μM FAM-peptide, 10 μM ATP, 90 minutes at room temperature; read-out: PIM3 LC3K (KI)
Procedure: as §1, §2

[3] = target: PIM2 (Homo sapiens (Human), UniProt Q9P1W9); assay: as above; type: biochemical; settings: 50 pM PIM2, 1 μM FAM-peptide, 10 μM ATP, 90 minutes at room temperature; read-out: PIM2 LC3K (KI)
Sequence of PIM2 (Q9P1W9 whole entry, the tested form may be a part): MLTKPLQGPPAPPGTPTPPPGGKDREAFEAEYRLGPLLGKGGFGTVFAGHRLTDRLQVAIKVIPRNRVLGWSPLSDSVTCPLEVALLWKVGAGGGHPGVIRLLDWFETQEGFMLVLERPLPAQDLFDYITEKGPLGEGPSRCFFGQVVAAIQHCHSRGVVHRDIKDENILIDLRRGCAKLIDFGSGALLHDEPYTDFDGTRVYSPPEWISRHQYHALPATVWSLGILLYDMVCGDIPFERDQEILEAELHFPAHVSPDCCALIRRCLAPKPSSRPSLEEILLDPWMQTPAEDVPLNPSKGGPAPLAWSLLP
Procedure: as §1, with “A” for “PIM-1, -2, and -3 enzymes were generated as fusion proteins expressed in bacteria and purified by IMAC column chromatography (Sun, X., Chiu, J. F., and He, Q. Y. (2005) Expert Rev. Proteomics, 2:649-657). A”
as §2, with “A standard enzymatic reaction, initiated by the addition of 5 μL 2×ATP and test compound to 5 μL of 2× enzyme and FAM-peptide, contained 20 pM PIM1, 50 pM PIM2, or 55 pM PIM3, 1 μM FAM-peptide, and 10 μM ATP, in Reaction Buffer.” left out, “The product and substrate fluorophore were excited at 488 nm and detected at 530 nm.” left out

[4] = tested on: BaF3 PIM1 cells; assay: In vitro cell proliferation potency assay, Cell Titer Glo (Example 902); type: cell-based, murine; settings: Mus musculus; BaF3 line transfected with PIM1, incubated overnight; read-out: Prolif BaF3 PIM1 (IC50)
Procedure: (§3) BaF3 parental line was obtained from the DSMZ repository. BaF3 lines transfected with PIM 1 or PIM2 were generated. Mouse IL-3 was purchased from R&D Systems. G418 was purchased from Clontech. Media for BaF3 parental line contained RPMI, 10% FBS, 2 mM L-Glutamine, 2 ng/mL mIL-3. Media for BaF3 PIM1 & 2 lines contained RPMI, 10% FBS, 2 mM L-Glutamine, […]. Media for MM1.S (multiple myeloma cells) line contained RPMI, 10% FBS, 2 mM L-Glutamine.
(§4) BaF3, a murine interleukin-3 dependent pro-B cell line, parental cells, BaF3 PIM1 cells, BaF3 PIM2 cells, and MM1.S (multiple myeloma) cells were seeded at 2 k/well, 5 k/well, 5 k/well, and 10 k/well respectively, in a 384-well plate, at 45 μL/well. Test compound was added at 5 μL/well. BaF3 cells (parental and transfected) were incubated overnight, while MM1.S cells were incubated for 72 hours at 37° C., 5% CO2. Cell Titer Glo Reagent (Promega) was added at 50 μL/well, the plates were incubated for 30 minutes, and their luminescence read on an HT Analyst. IC50/EC50 values for the test compound were calculated.

[5] = tested on: BaF3 parental cells; assay: as above; type: cell-based, murine; settings: Mus musculus; BaF3 parental line, medium with 2 ng/mL mIL-3, incubated overnight; read-out: Prolif BaF3 IL3 (IC50)
Procedure: as §3, §4

[6] = tested on: MM1.S (multiple myeloma) cells; assay: as above; type: cell-based; settings: Homo sapiens, incubated for 72 hours, read-out: Prolif MM1S ATP (EC50)
Procedure: as §3, §4

Sequence of PIM1 (P11309 whole entry, the tested form may be a part): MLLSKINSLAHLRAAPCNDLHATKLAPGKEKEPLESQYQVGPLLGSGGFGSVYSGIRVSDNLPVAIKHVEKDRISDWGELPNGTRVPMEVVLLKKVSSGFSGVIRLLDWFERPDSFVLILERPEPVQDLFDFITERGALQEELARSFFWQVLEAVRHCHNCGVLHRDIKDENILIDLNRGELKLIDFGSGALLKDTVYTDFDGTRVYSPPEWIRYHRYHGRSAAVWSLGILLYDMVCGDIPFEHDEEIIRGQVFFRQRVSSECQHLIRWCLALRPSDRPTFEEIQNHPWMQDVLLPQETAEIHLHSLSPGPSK

SMILES | Ki [1] | Ki [2] | Ki [3] | IC50 [4] | IC50 [5] | EC50 [6]
Nc1sc(-c2c(F)cccc2F)nc1C(=O)Nc1cn[nH]c1N1CCC[C@H](N)C1 [Example 103, (S)-5-amino-N-(5-(3-aminopiperidin-1-yl)-1H-pyrazol-4-yl)-2-(2,6-difluorophenyl)thiazole-4-carboxamide] | 6.5 nM | 4.89 nM | 55.1 nM | 7300 nM | 10600 nM | 9100 nM
Cn1ncc(NC(=O)c2nc(-c3c(F)cccc3F)sc2N)c1N1CCC[C@H](N)C1 [Example 106, (S)-5-amino-N-(5-(3-aminopiperidin-1-yl)-1-methyl-1H-pyrazol-4-yl)-2-(2,6-difluorophenyl)thiazole-4-carboxamide] |  |  |  | 3800 nM | 6600 nM | 4200 nM
Cn1ncc(NC(=O)c2nc(-c3c(F)cccc3F)sc2N)c1N1CCC(N)CC1 [Example 108, 5-amino-N-(5-(4-aminopiperidin-1-yl)-1-methyl-1H-pyrazol-4-yl)-2-(2,6-difluorophenyl)thiazole-4-carboxamide] |  |  |  | 615 nM | 4300 nM | 8200 nM
Cn1ncc(NC(=O)c2nc(-c3ccccc3F)ccc2N)c1N1CCC(N)CC1 [Example 110, 3-amino-N-(5-(4-aminopiperidin-1-yl)-1-methyl-1H-pyrazol-4-yl)-6-(2-fluorophenyl)picolinamide] |  |  |  | 1500 nM | 12000 nM | 16100 nM
Cn1ncc(NC(=O)c2nc(-c3ccccc3F)ccc2N)c1N1CCC[C@H](N)C1 [Example 111, (S)-3-amino-N-(5-(3-aminopiperidin-1-yl)-1-methyl-1H-pyrazol-4-yl)-6-(2-fluorophenyl)picolinamide] |  |  |  | 4200 nM | 13200 nM | 7100 nM
Cn1ncc(NC(=O)c2nc(-c3ccccc3F)ccc2N)c1N1CCCC(N)CC1 (stereo not drawn) [Example 114, 3-amino-N-(5-(4-aminoazepan-1-yl)-1-methyl-1H-pyrazol-4-yl)-6-(2-fluorophenyl)picolinamide] | 0.115 nM | 0.159 nM | 1.65 nM | 2300 nM | 5500 nM | 
Cn1ncc(NC(=O)c2nc(-c3c(F)cccc3F)sc2N)c1OCC1CCNCC1 [Example 115, 5-amino-2-(2,6-difluorophenyl)-N-(1-methyl-5-(piperidin-4-ylmethoxy)-1H-pyrazol-4-yl)thiazole-4-carboxamide] | 1.14 nM | 1.08 nM | 46.1 nM | 4500 nM | 6200 nM | 
Cn1ncc(NC(=O)c2nc(-c3ccccc3F)cnc2N)c1N1CCC[C@H](N)C1 [Example 119, (S)-3-amino-N-(5-(3-aminopiperidin-1-yl)-1-methyl-1H-pyrazol-4-yl)-6-(2-fluorophenyl)pyrazine-2-carboxamide] |  | 0.305 nM | 2.13 nM | 1300 nM | 5200 nM | 
Cn1ncc(NC(=O)c2nc(-c3c(F)cccc3F)sc2N)c1OC1CCNCC1 [Example 120, 5-amino-2-(2,6-difluorophenyl)-N-(1-methyl-5-(piperidin-4-yloxy)-1H-pyrazol-4-yl)thiazole-4-carboxamide] | 1.97 nM | 1.1 nM |  | 7800 nM | 25000 nM | 
Cn1ncc(NC(=O)c2nc(-c3ccccc3F)cnc2N)c1N1CCC(N)CC1 [Example 122, 3-amino-N-(5-(4-aminopiperidin-1-yl)-1-methyl-1H-pyrazol-4-yl)-6-(2-fluorophenyl)pyrazine-2-carboxamide] | 0.281 nM | 0.962 nM | 14.7 nM | 1100 nM | 11900 nM | 
Cn1ncc(NC(=O)c2nc(-c3ccccc3F)ccc2N)c1N1CCC[C@H](CN)C1 [Example 129, (R)-3-amino-N-(5-(3-(aminomethyl)piperidin-1-yl)-1-methyl-1H-pyrazol-4-yl)-6-(2-fluorophenyl)picolinamide] | 0.343 nM | 1.33 nM | 10.2 nM | 5100 nM | 21500 nM | 
Cn1ncc(NC(=O)c2nc(-c3ccccc3F)ccc2N)c1N1CC[C@@H](CN)C1 [Example 134, (S)-3-amino-N-(5-(3-(aminomethyl)pyrrolidin-1-yl)-1-methyl-1H-pyrazol-4-yl)-6-(2-fluorophenyl)picolinamide] |  |  |  | 1400 nM | 7800 nM | 
Cn1ncc(NC(=O)c2nc(-c3c(F)cccc3F)sc2N)c1N1CC[C@H](CN)C1 [Example 135, (R)-5-amino-N-(5-(3-(aminomethyl)pyrrolidin-1-yl)-1-methyl-1H-pyrazol-4-yl)-2-(2,6-difluorophenyl)thiazole-4-carboxamide] | 0.506 nM | 0.344 nM | 10.6 nM | 660 nM | 9300 nM | 
Cn1ncc(NC(=O)c2nc(-c3ccccc3F)ccc2N)c1N1CC[C@H](CN)C1 [Example 136, (R)-3-amino-N-(5-(3-(aminomethyl)pyrrolidin-1-yl)-1-methyl-1H-pyrazol-4-yl)-6-(2-fluorophenyl)picolinamide] |  |  |  | 634 nM | 5900 nM | 
Cn1ncc(NC(=O)c2nc(-c3ccccc3F)cnc2N)c1N1CCC[C@@H](N)CC1 [Example 141, (R)-3-amino-N-(5-(4-aminoazepan-1-yl)-1-methyl-1H-pyrazol-4-yl)-6-(2-fluorophenyl)pyrazine-2-carboxamide] |  | 0.295 nM | 3.52 nM | 219 nM | 1100 nM | 
Cn1ncc(NC(=O)c2nc(-c3ccccc3F)cnc2N)c1N1CCC[C@H](N)CC1 [Example 143, (S)-3-amino-N-(5-(4-aminoazepan-1-yl)-1-methyl-1H-pyrazol-4-yl)-6-(2-fluorophenyl)pyrazine-2-carboxamide] |  |  |  | 377 nM | 1100 nM | 
Cn1ncc(NC(=O)c2nc(-c3ccccc3F)ccc2N)c1N1CCC[C@@H](N)CC1 [Example 145, (R)-3-amino-N-(5-(4-aminoazepan-1-yl)-1-methyl-1H-pyrazol-4-yl)-6-(2-fluorophenyl)picolinamide] |  |  |  | 1000 nM | 3800 nM | 
